In US12303492B2, “Compounds for treating TNBC” (Purdue Pharma L.P., priority 2017, dated 2025):

Test system: HCC1143 p13 spheroid (TNBC, BL1 subtype, BRCA-1 wt)
Assay: TNBC spheroid model, residual cell viability by standard ATP assay
Type: cell-based
Settings: for mean cell viability: mean of six repeats
Protocol: The activity of EDO-S101 alone and in combination was evaluated in triple negative breast cancer (TNBC) cells lines using a spheroid model.
Heterotypic tumour spheroids were prepared from the individual primary breast cancer tissue. The tumour samples were mechanically and enzymatically digested using an enzyme cocktail (Roche, Penzberg Germany), cell viability determined using the trypan-blue exclusion test, and spheroids seeded at a cell density of 50,000 using a modified liquid overlay method. After 48 h in cell culture under standard conditions, successful spheroid formation was documented photographically before starting treatment.
The spheroids were treated with EDO-S101 (5 μM, 10 μM) alone and in combination with carboplatin and/or the PARP inhibitor olaparib (Table 2) for different periods of time (48, 72 h). Solvent controls and an untreated (medium) control was used under the same culture conditions. Treatment efficacy of all drugs was analysed with a standard ATP assay.
The results are the mean of six repeats per treatment based on the results of the ATP assay.
HCC1143 cells are from the BL1 triple negative breast cancer subtype.

O=C(c1cc(Cc2n[nH]c(=O)c3ccccc23)ccc1F)N1CCN(C(=O)C2CC2)CC1 [Olaparib, reference compound] was tested, and the residual cell viability (human, 72 h) was 62%.

With N.N.O=C([O-])C1(C(=O)[O-])CCC1.[Pt+2] [Carboplatin, reference compound] the mean cell viability (HCC1143 p13 spheroids, T48 h, control agents: carboplatin 40.84 μg/ml, paclitaxel 1.53 μg/ml, olaparib 6.6 μg/ml) was 118.28 % solvent control and the mean cell viability (HCC1143 spheroids, T72 h, control agents: carboplatin 40.84 μg/ml, paclitaxel 1.53 μg/ml, olaparib 6.6 μg/ml) was 105.88 % solvent control.

Cn1c(CCCCCCC(=O)NO)nc2cc(N(CCCl)CCCl)ccc21 [EDO-S101, 7-(5-(bis(2-chloroethyl)amino)-1-methyl-1H-benzo[d]imidazol-2-yl)-N-hydroxyheptanamide] gave a mean cell viability (HCC1143 p13 spheroids, T48 h, EDO S101 5 μM alone or with carboplatin 40.84 μg/ml and/or olaparib 6.6 μg/ml) of 85.75 % solvent control, a mean cell viability (HCC1143 p13 spheroids, T48 h, EDO S101 10 μM alone or with carboplatin 40.84 μg/ml and/or olaparib 6.6 μg/ml) of 57.43 % solvent control and a mean cell viability (HCC1143 spheroids, T72 h, EDO S101 5 μM alone or with carboplatin 40.84 μg/ml and/or olaparib 6.6 μg/ml) of 79.99 % solvent control. It also gave a mean cell viability (HCC1143 spheroids, T72 h, EDO S101 10 μM alone or with carboplatin 40.84 μg/ml and/or olaparib 6.6 μg/ml) of 77.09 % solvent control, a residual cell viability (HCC1143 spheroids, after 48 h, EDO-S101 5 μm (alone or in combination)) of 86% and a residual cell viability (HCC1143 spheroids, after 48 h, EDO-S101 10 μm) of 57%.
